Patent US10464957B2, “Oxidized lipids and methods of use thereof” (Vascular Biogenics Ltd., priority 2014, dated 2019)

Legend:
[1] = system: human monocytes (primary CD14+); assay: Chemokine-induced cell migration trans-well assay; assay type: cell-based; conditions: RANTES 100 ng/ml and MCP-1 50 ng/ml, 2-4 hours, FACS count
Protocol: Venous blood samples were obtained from healthy male donors in compliance with the Institutional Review Board at the Sheba Medical Center, Ramat Gan, Israel. PBMCs were isolated on Ficoll-Paque PLUS (GE Healthcare, Uppsala, Sweden) using 50 ml Leucosep tubes (Greiner Bio-One, Frickenhausen, Germany). Cells were washed in PBS (Kibbutz Beit Haemek, Israel) and incubated at 4° C. for 15 minutes in a buffer containing PBS and 0.5% bovine serum albumin (BSA) with human CD14 microbeads (Miltenyi Biotec, Bergisch Gladbach, Germany).
Cells (10^6/ml) were pretreated for 20 min with VB-201 or VB-701 at the doses indicated in FIG. 5, or with solvent (Sol).
To test for chemokine-induced cell migration, RANTES (100 ng/ml; Cat. No. 300-06, PeproTech, Israel) and MCP-1 (50 ng/ml; Cat. No. 300-04, PeproTech, Israel) were dissolved in RPMI-1640 medium supplemented with 0.5% fetal bovine serum (FBS) and placed at the lower chamber of QCM 24-well, […], migration assay plates (Corning-Costar, Corning, N.Y.). Cells (3×10^5) were seeded in the upper chamber and incubated for 2-4 hours. Subsequently, the number of cells which migrated to the lower compartment was determined by fluorescence-activated cell sorting (FACS).

[2] = target: T1, TLR4 complex (Homo sapiens, UniProt O00206+Q9Y6Y9); assay: LPS binding inhibition assay (biotin-LPS, FACS); conditions: biotin-LPS 100 ng/ml, FACS
T1 construct: endogenous in cells; probably the human primary monocytes of b454
Protocol: To assess interference with lipopolysaccharide (LPS) binding, VB-201 or VB-703 were incubated for 20 min with cells (10^6/ml) after which 100 ng/ml of biotin-LPS (InvivoGen) was added for an additional 15 minutes, all at 4° C. Cells were washed, resuspended in FACS buffer and analyzed on a FACS-Calibur device.

[3] = system: NASH-induced mice; assay: NASH and liver fibrosis mouse model (STZ + HFD), liver histology; assay type: in vivo; conditions: VB-703 4 mg/kg, telmisartan 10 mg/kg, once daily for three weeks
Protocol: Neonatal male mice exposed to low-dose streptozotocin (STZ) develop liver steatosis with diabetes. Continuous high fat diet (HFD) increases lobular inflammation with foam cell-like macrophages, showing nonalcoholic steatohepatitis (NASH) pathology. NASH was induced in 40 male mice by a single subcutaneous injection of 200 μg per mouse of STZ two days after birth and feeding HFD [57 kcal % fat]) from four weeks of age. Vehicle, VB-703 (4 mg/kg), or telmisartan (10 mg/kg) as positive control, were administered once daily for three weeks, starting from six weeks of age. Mice were sacrificed at nine weeks of age.
Liver pathology was used to determine the effect of VB-703 on liver inflammation and fibrosis. Histology slides were stained with hematoxylin/eosin (H&E) to assess inflammation. The inflammation score was determined as follows:
Histology slides were stained with Sirius red to determine collagen content as a marker for the extent of fibrosis.

[4] = system: nephrectomized rats; assay: 5/6 nephrectomy chronic renal disease rat model (focal and segmental glomerulosclerosis); assay type: in vivo, Sprague Dawley (SD) Rats; conditions: VB-703 4 mg/kg
Protocol: Male Sprague Dawley (SD) Rats (Harlan Laboratories, Israel) with an initial weight of 200 g were housed 2-3 per cage in IVC cages in dedicated HVAC (heat, ventilation, air conditioning animal facility at a temperature of 22±2° C. and RH (relative humidity) of 55±15%). Temperature and humidity were monitored continuously. The facility had no exposure to outside light and was maintained on automatic alternating cycles of 12 hours of light and 12 hours of dark. Animals were provided with a commercial rodent diet (Harlan Teklad TRM Rat/Mouse Diet) ad libitum and allowed free access to autoclaved water, supplied to each cage via polysulphone bottles with stainless steel sipper tubes. All animal work was approved by the Animal Care and Use Committee of Israel (IL-13-03-027).
Rats were divided into three groups: (1) Healthy rats (n=3) in group A, (2) Sham group—subjected to chirurgical process but without kidney mass reduction (n=3) in group B, and (3) the rest were induced with chronic renal failure (n=32). Chronic renal failure was induced by a two stage (5/6) nephrectomy (Nx), with subtraction firstly of about ⅔ of the left kidney by left flank incision and, one week later, complete removal of the right kidney. General anesthesia consisted of intraperitoneal injection of ketamine 100 mg/kg and xylazine 20 mg/kg (0.85 ml ketamine+0.15 ml xylazine for each ml preparation; 1 μl/g BW was injected I.P).
One week following the second surgery, rats were randomly assigned to the following experimental groups:
Nephrectomized, orally administered with VB-703 4 mg/kg (n=8); and
Nephrectomized, orally administered with telmisartan 10 mg/kg as positive control (n=8).
Body weight (BW) was monitored throughout the study and rats were treated by oral gavage according to their body weight for 7 weeks. Rats were sacrificed by CO2 inhalation 8 weeks from removal of the right kidney (2nd surgery).
Proteinuria and albuminuria was determined in urine specimens, collected during a 24-hour period, from animals housed in cages at 4 weeks (3 w of treatment) and 8 weeks (7 w of treatment) after the subtotal nephrectomy (2nd surgery). Urine samples were analyzed for: glucose, urea, sodium, potassium, creatinine, total protein, and albumin.
Upon sacrifice, at 8 weeks, kidneys were collected, weighed and fixed in 4% formaldehyde.
For light microscopy, paraffin-embedded tissue slides of 4 μm were stained with Periodic Acid-Schiff (PAS) reagent, Masson's Trichrome and Hematoxylin & Eosin.
Glomerular sclerosis index. Glomerulosclerosis was assessed by PAS-stained sections using a semiquantitative scoring system. The extent of glomerulosclerosis was evaluated by examining mostly 100 randomly selected glomeruli at a magnification of ×400 and applying a score system according to the percentage of sclerosed glomerular area. The score was graded from 0 to 4: (0=0% area; 1=1-25%; 2=26-50%, 3=51-75%, 4=76% and above). The mean of all scored glomeruli was presented. Moreover, the extent of global and segmental glomerulosclerosis was evaluated in the same glomeruli, where <80% sclerosis was referred to as segmental and >80% was referred to as global.
Glomerular area. The glomerular area of mostly 100 randomly selected glomeruli at a magnification of ×100 was quantitated by counting squares covered by glomeruli area using a grid and the mean glomeruli area was calculated.
Renal tissues were fixed in 4% formaldehyde and embedded in paraffin. The paraffin-embedded tissues were then cut to form tissue slides of 4 μm. Immunohistochemistry of the paraffin-embedded tissue slides was analyzed using antibodies in the following concentration: monoclonal mouse anti rat CD-68 (ED-1, Serotec MCA341) 1:25. For quantitation of interstitial CD68+ staining, the number of positive cells was counted in 20 randomly selected non-overlapping fields per animal, and the mean value was presented. […]

[5] = system: kidney of nephrectomized rats; assay: Real-time PCR of pro-fibrotic markers in kidney of nephrectomized rats; assay type: in vivo, Sprague Dawley (SD) Rats
Protocol: Kidney RNA was extracted with an RNeasy Fibrous Tissue Mini kit (Qiagen) and after DNAse I treatment, single-stranded cDNA was synthesized from 2 μg total RNA using the qScript cDNA Synthesis Kit (Quanta Biosciences) and diluted for real-time PCR. The expression of collagen 4α, fibronectin and TGFβ was quantified using the 7300 Real Time PCR System (Applied Biosystems). The assay was performed according to manufacturer instructions using the primers (Assay ID) represented at the table below supplied by Applied Biosystems. Data were normalized to the reference gene TATA box Binding Protein (TBP) and presented as relative mRNA levels compared with Sham PBS 0.5% Eth treatment (Table 1).

[6] = Nx rats, Telmisartan 10 mg/kg, 8 weeks, Mean ± S.E
[7] = telmisartan 10 mg/kg, oral 7 weeks, vs Nx PBS 0.5% Eth
[8] = compared to Nx PBS 0.5% Eth treatment, VB-703 4 mg/kg, telmisartan 10 mg/kg
[9] = normalized to TBP, relative to Sham PBS 0.5% Eth, mean±SEM

T1 sequence (O00206 24-839): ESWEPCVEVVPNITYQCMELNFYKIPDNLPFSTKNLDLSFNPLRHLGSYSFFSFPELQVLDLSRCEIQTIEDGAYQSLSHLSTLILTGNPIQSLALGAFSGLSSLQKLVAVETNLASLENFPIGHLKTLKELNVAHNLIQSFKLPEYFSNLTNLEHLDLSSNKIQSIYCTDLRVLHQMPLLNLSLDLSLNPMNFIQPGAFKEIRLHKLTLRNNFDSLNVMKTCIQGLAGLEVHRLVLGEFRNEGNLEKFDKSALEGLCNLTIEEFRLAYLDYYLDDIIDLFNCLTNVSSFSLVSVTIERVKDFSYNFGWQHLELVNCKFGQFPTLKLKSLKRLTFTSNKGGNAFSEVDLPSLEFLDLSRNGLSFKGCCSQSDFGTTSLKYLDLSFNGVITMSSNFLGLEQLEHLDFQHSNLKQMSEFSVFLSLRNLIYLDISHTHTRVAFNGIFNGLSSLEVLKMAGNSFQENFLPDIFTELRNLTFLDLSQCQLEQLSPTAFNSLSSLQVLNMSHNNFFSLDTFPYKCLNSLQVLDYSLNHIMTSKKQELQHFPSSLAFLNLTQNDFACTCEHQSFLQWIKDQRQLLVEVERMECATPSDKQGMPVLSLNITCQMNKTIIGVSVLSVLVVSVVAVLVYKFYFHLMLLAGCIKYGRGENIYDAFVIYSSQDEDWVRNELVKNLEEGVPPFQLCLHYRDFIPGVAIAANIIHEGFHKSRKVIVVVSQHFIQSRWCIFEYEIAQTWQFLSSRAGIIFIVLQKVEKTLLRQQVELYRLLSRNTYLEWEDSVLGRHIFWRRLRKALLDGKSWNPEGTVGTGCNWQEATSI
T1 sequence (Q9Y6Y9 17-160 limits assumed): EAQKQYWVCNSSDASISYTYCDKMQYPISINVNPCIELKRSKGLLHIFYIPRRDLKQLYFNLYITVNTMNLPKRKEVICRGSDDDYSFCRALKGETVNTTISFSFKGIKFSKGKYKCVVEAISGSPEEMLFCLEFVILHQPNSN

Row | SMILES | chemokine-induced migration of human monocytes [1] | LPS-biotin binding to human monocytes (primary CD14+) [2] | decrease of liver fibrosis compared to vehicle treated mice (Sirius red) [3] [%] | Glomerular sclerosis Global % [4, 6] [%] | Glomerular sclerosis Global & Segmental % [4, 6] [%] | Glomerular sclerosis Segmental % [4, 6] [%] | glomerular and interstitial monocyte/macrophage infiltration (CD68 positive cells) ([4]; telmisartan 10 mg/kg, 8 weeks) | reduction of damaged glomeruli percent [4, 7] [%] | reduction of sclerotic glomeruli [4, 7] [%] | reduction of Collagen IV expression [5, 8] [%] | reduction of TGF-β expression [5, 8] [%] | reduction of fibronectin expression [5, 8] [%] | Collagen IV mRNA expression (relative mRNA level) [5, 9] | TGF-β mRNA expression (relative mRNA level) [5, 9] | fibronectin mRNA expression (relative mRNA level) [5, 9]
1 | CCCCCCCCCCCCCCCCOCC(COP(=O)([O-])OCC[n+]1ccccc1)OCCCCC(=O)OC (stereo not drawn) [VB-704, 1-hexadecyl-2-(4′-carboxymethyl)butyl-glycero-sn-3-phosphoric acid pyridiniumethyl ester] | inhibits | does not inhibit | – | – | – | – | – | – | – | – | – | – | – | – | –
2 | CCCc1nc2c(C)cc(-c3nc4ccccc4n3C)cc2n1Cc1ccc(-c2ccccc2C(=O)O)cc1 [telmisartan, reference compound] | – | – | 47 | 1.9 ± 1.60 | 21.0 ± 5.45 | 19.1 ± 4.30 | did not produce a significant effect | 31 | 57 | 41 | 44 | 23 | 4.4±0.23 | 4.7±0.52 | 9.8±2.09
